Measured values: US10889555B2, “Sulfonamide compound or salt thereof” (Taiho Pharmaceutical Co., Ltd., priority 2016, dated 2021)
Where two headings read alike, the source gives them in different places.

Test system: HCC 1806 cells
Experiment: Cell proliferation inhibitory effect on human breast cancer cell line (crystal violet, 72 hours)
Assay type: cell-based
Conditions: read-out: Cell growth suppression IC50
Procedure: Human derived breast cancer cell line HCC 1806 cells were daily passaged at a cell density not exceeding 80% in ATCC recommended Roswell Park Memorial Institute medium (RPMI-1640) containing 10% fetal bovine serum (FBS). In order to start the test of cell proliferation inhibitory activity, HCC 1806 cells were suspended in the above medium, after seeing at 180 μL in each well of a 96-well flat bottom plate so that the number of cells per well was 2,000, the cells were cultured at 37° C. for 1 day in an incubator containing 5% carbon dioxide gas. On the next day, the test compound was dissolved in DMSO, and 20 μL of a drug additive solution diluted serially with distilled water to 10 times of the final concentration was added to each well of the culture plate of the cells, and the cells were cultured at 37° C. for 72 hours in an incubator containing 5% carbon dioxide gas. After culturing for 72 hours, 20 μL of glutaraldehyde was added to each well and allowed to stand for 30 minutes, then the plate was washed 10 times with water and was dried. 100 μL of a stain solution (0.05% crystal violet in a 20% methanol solution) was added to each well and allowed to stand for 30 minutes, then the plate was washed 10 times with water and was dried. 100 μL of an extract solution (0.1 N NaH2PO4: 100% ethanol=1:1) was added to each well and mixed, and the mixture was measured at a wavelength of 540 nm using a plate reader (MTP-450 manufactured by Corona Electric Co., Ltd.). The growth inhibition rate was calculated from the following formula, and the concentration (IC50 (μM)) of a test compound inhibiting 50% was determined. Growth inhibition rate (%)={(C−B)−(T−B)}/(C−B)×100
T: Absorbance of well to which test compound was added
C: Absorbance of wells to which no test compound was added
B: Absorbance of wells to which no cell suspension was added

| SMILES | IC50 (Homo sapiens, HCC1806, 72 h) [nM] | IC50 [nM] |
| --- | --- | --- |
| Cc1ccc(F)c([C@@H](C)[C@H](NS(=O)(=O)c2ccc(Cl)c3c2OCCC3O)c2n[nH]c(=O)o2)c1C (single isomer, unassigned) [Example 235B] |  | 400 |
| Cc1ccc(F)c([C@@H](C)[C@H](NS(=O)(=O)c2ccc(Cl)nc2C(N)=O)c2n[nH]c(=O)o2)c1C [Example 19, 6-Chloro-3-(N-((1S,2R)-2-(6-fluoro-2,3-dimethylphenyl)-1-(5-oxo-4,5-dihydro-1,3,4-oxadiazol-2-yl)propyl)sulfamoyl)picolinamide] | 940 |  |
| CNC(=O)c1nc(S(=O)(=O)N[C@H](c2n[nH]c(=O)o2)[C@H](C)c2c(F)ccc(C)c2C)ccc1Cl [Example 252, 3-chloro-6-(N-((1S,2R)-2-(6-fluoro-2,3-dimethylphenyl)-1-(5-oxo-4,5-dihydro-1,3,4-oxadiazol-2-yl)propyl)sulfamoyl)-N-methylpicolinamide] | 740 |  |
| Cc1c(C2CC2)ccc(F)c1[C@@H](C)[C@H](NS(=O)(=O)c1ccc(Cl)cc1C(N)=O)c1n[nH]c(=O)o1 [Example 26, 5-chloro-2-(N-((1S,2R)-2-(3-cyclopropy1-6-fluoro-2-methylphenyl)-1-(5-oxo-4,5-dihydro-1,3,4-oxadiazol-2-yl)propyl)sulfamoyl)benzamide] | 980 |  |
| Cc1ccc(F)c([C@@H](C)[C@H](NS(=O)(=O)c2ccc(Cl)c(C(=O)N3CCC4(CC3)COC4)n2)c2n[nH]c(=O)o2)c1C [Example 156, 5-chloro-N-((1S,2R)-2-(6-fluoro-2,3-dimethylphenyl)-1-(5-oxo-4,5-dihydro-1,3,4-oxadiazol-2-yl)propyl)-6-(2-oxa-7-azaspiro[3.5]nonane-7-carbonyl)pyridine-2-sulfonamide] | 870 |  |
| Cc1c(Br)ccc(F)c1[C@@H](C)[C@H](NS(=O)(=O)c1ccc(Cl)c2c1OCCC2O)c1n[nH]c(=O)o1 (single isomer, unassigned) [Example 243B] |  | 700 |
| Cc1ccc(F)c([C@@H](C)[C@H](NS(=O)(=O)c2ccc(Cl)cc2OC(F)F)c2n[nH]c(=O)o2)c1C [Example 146, 4-chloro-2-(difluoromethoxy)-N-((1S,2R)-2-(6-fluoro-2,3-dimethylphenyl)-1-(5-oxo-4,5-dihydro-1,3,4-oxadiazol-2-yl)propyl)benzenesulfonamide] | 830 |  |
| COc1c(S(=O)(=O)N[C@H](c2n[nH]c(=O)o2)[C@H](C)c2c(F)ccc(C)c2C)ccc(Cl)c1C(C)O (single isomer, unassigned) [Example 208B] |  | 50 |
| Cc1ccc(F)c([C@@H](C)[C@H](NS(=O)(=O)c2cc3c(cc2C(N)=O)OCCO3)c2n[nH]c(=O)o2)c1C [Example 261, 7-(N-((1S,2R)-2-(6-fluoro-2,3-dimethylphenyl)-1-(5-oxo-4,5-dihydro-1,3,4-oxadiazol-2-yl)propyl)sulfamoyl)-2,3-dihydrobenzo[b][1,4]dioxin-6-carboxamide] | 720 |  |
| Cc1c(Cl)ccc(F)c1[C@@H](C)[C@H](NS(=O)(=O)c1ccc(Cl)c2c1OCCC2(C)O)c1n[nH]c(=O)o1 (single isomer, unassigned) [Example 209B] |  | 820 |

The remaining compounds from weak to strong by IC50 (Homo sapiens, HCC1806, 72 h), led by results:

| IC50 (Homo sapiens, HCC1806, 72 h) [nM] | SMILES | IC50 [nM] |
| --- | --- | --- |
| 650 | CC(=O)c1cc(Cl)ccc1S(=O)(=O)N[C@H](c1n[nH]c(=O)o1)[C@H](C)c1c(F)ccc(C)c1C [Example 147, 2-acetyl-4-chloro-N-((1S,2R)-2-(6-fluoro-2,3-dimethylphenyl)-1-(5 oxo-4,5-dihydro-1,3,4-oxadiazol-2-yl)propyl)benzenesulfonamide] |  |
| 640 | Cc1ccc(F)c([C@@H](C)[C@H](NS(=O)(=O)c2ccc(F)c(C(C)(C)O)c2F)c2n[nH]c(=O)o2)c1C [Example 186, 2,4-difluoro-N-((1S,2R)-2-(6-fluoro-2,3-dimethylphenyl)-1-(5-oxo-4,5-dihydro-1,3,4-oxadiazol-2-yl)propyl)-3-(2-hydroxypropan-2-yl)benzenesulfonamide] |  |
| 590 | Cc1c(Cl)ccc(F)c1[C@@H](C)[C@H](NS(=O)(=O)c1ccc(Br)cc1C(N)=O)c1n[nH]c(=O)o1 [Example 25, 5-bromo-2-(N-((1S,2R)-2-(3-chloro-6-fluoro 2 methylphenyl)-1-(5-oxo-4,5-dihydro-1,3,4-oxadiazol-2-yl)propyl)sulfamoyl)benzamide] |  |
| 590 | Cc1ccc(F)c([C@@H](C)[C@H](NS(=O)(=O)c2cnc(Cl)cc2C(N)=O)c2n[nH]c(=O)o2)c1C [Example 40, 2-chloro-5-(N-((1S,2R)-2-(6-fluoro-2,3-dimethylphenyl)-1-(5-oxo-4,5-dihydro-1,3,4-oxadiazol-2-yl)propyl)sulfamoyl)isonicotinamide] |  |
| 560 | Cc1ccc(S(=O)(=O)N[C@H](c2n[nH]c(=O)o2)[C@H](C)c2c(F)ccc(C)c2C)c(C(N)=O)c1 [Example 10, 2-(N-((1S,2R)-2-(3-6-fluoro-2,3-dimethylphenyl)-1-(5-oxo-4,5-dihydro-1,3,4-oxadiazol-2-yl)propyl)sulfamoyl)-5-methylbenzamide] |  |
| 400 | COC(=O)c1nc(S(=O)(=O)N[C@H](c2n[nH]c(=O)o2)[C@H](C)c2c(F)ccc(C)c2C)ccc1Cl [Example 109, methyl 3-chloro-6-(N-((1S,2R)-2-(6-fluoro-2,3-dimethylphenyl)-1-(5-oxo-4,5-dihydro-1,3,4-oxadiazol-2-yl)propyl)sulfamoyl)picolinate] |  |
| 370 | CC(=O)NC1CCOc2c(S(=O)(=O)N[C@H](c3n[nH]c(=O)o3)[C@H](C)c3c(F)ccc(C)c3C)ccc(Cl)c21 (stereo partly drawn) [Example 157, N-(5-chloro-8-(N-((1S,2R)-2-(6-fluoro-2,3-dimethylphenyl)-1-(5-oxo-4,5-dihydro-1,3,4-oxadiazol-2-yl)propyl)sulfamoyl)chroman-4-yl)acetamide] |  |
| 350 | CCn1cc(-c2ccc(F)c([C@@H](C)[C@H](NS(=O)(=O)c3ccc(Cl)cc3OC)c3n[nH]c(=O)o3)c2C)cn1 [Example 310, 4-chloro-N-((1S,2R)-2-(3-(1-ethyl-1H-pyrazol-4-yl)-6-fluoro-2-methylphenyl)-1-(5-oxo-4,5-dihydro-1,3,4-oxadiazol-2-yl)propyl)-2-methoxybenzenesulfonamide] |  |
| 310 | Cc1cc(F)c(F)c([C@@H](C)[C@H](NS(=O)(=O)c2ccc(Cl)cc2C(N)=O)c2n[nH]c(=O)o2)c1C [Example 13, 5-chloro-2-(N-((1S,2R)-2-(2,3-difluoro-5,6-dimethylphenyl)-1-(5-oxo-4,5-dihydro-1,3,4-oxadiazol-2-yl)propyl)sulfamoyl)benzamide] |  |
| 280 | C[C@H](c1c(F)ccc2ccccc12)[C@H](NS(=O)(=O)c1ccc(Cl)c2c1OCCC2O)c1n[nH]c(=O)o1 (stereo partly drawn) [Example 233, 5-chloro-N-((1S,2R)-2-(2-fluoronaphthalene-1-yl)-1-(5-oxo 4,5-dihydro-1,3,4-oxadiazol-2-yl)propyl)-4-hydroxychroman-8-sulfonamide] |  |
| 260 | COc1c(S(=O)(=O)N[C@H](c2n[nH]c(=O)o2)[C@H](C)c2c(F)ccc(C)c2C)ccc(Cl)c1C(C)(C)O [Example 212, 4-chloro-N-((1S,2R)-2-(6-fluoro-2,3-dimethylphenyl)-1-(5-oxo-4,5-dihydro-1,3,4-oxadiazol-2-yl)propyl)-3-(2-hydroxypropan-2-yl)-2-methoxybenzenesulfonamide] |  |
| 240 | Cc1c(Br)ccc(F)c1[C@@H](C)[C@H](NS(=O)(=O)c1ccc(Cl)c2c1OCCC2(C)N)c1n[nH]c(=O)o1 (stereo partly drawn) [Example 329, 4-amino-N-((1S,2R)-2-(3-bromo-6-fluoro-2-methylphenyl)-1-(5-oxo-4,5-dihydro-1,3,4-oxadiazol-2-yl)propyl)-5-chloro-4-methyl-chroman-8-sulfonamide] |  |
| 150 | Cc1ccc(F)c([C@@H](C)[C@H](NS(=O)(=O)c2ccc(Cl)c3c2OCCN3C)c2n[nH]c(=O)o2)c1C [Example 288, 5-chloro-N-((1S,2R)-2-(6-fluoro-2,3-dimethylphenyl)-1-(5-oxo-4,5-dihydro-1,3,4-oxadiazol-2-yl)propyl)-4-methyl-3,4-dihydro-2H-benzo[b][1,4]oxazine-8-sulfonamide] |  |
| 140 | CC(=O)OC1(C)CCOc2c(S(=O)(=O)N[C@H](c3n[nH]c(=O)o3)[C@H](C)c3c(F)ccc(C)c3C)ccc(Cl)c21 (stereo partly drawn) [Example 95, 5-chloro-8-(N-((1S,2R)-2-(6-fluoro-2,3-dimethylphenyl)-1-(5-oxo-4,5-dihydro-1,3,4-oxadiazol-2-yl)propyl)sulfamoyl)-4-methylchroman-4-yl acetate] |  |
| 110 | Cc1ccc(F)c([C@@H](C)[C@H](NS(=O)(=O)c2ccc(Cl)c(C(C)(C)O)n2)c2n[nH]c(=O)o2)c1C [Example 193, 5-chloro-N-((1S,2R)-2-(6-fluoro-2,3-dimethylphenyl)-1-(5-oxo-4,5-dihydro-1,3,4-oxadiazol-2-yl)propyl)-6-(2-hydroxypropan-2-yl)pyridine-2-sulfonamide] |  |
| 80 | [2H]C([2H])([2H])C1(OC(C)=O)CCOc2c(S(=O)(=O)N[C@H](c3n[nH]c(=O)o3)[C@H](C)c3c(F)ccc(C)c3C)ccc(Cl)c21 (stereo partly drawn) [Example 129, 5-Chloro-8-(N-((1S,2R)-2-(6-fluoro-2,3-dimethylphenyl)-1-(5-oxo-4,5-dihydro-1,3,4-oxadiazol-2-yl)propyl)sulfamoyl)-4-methyl-d3-chroman-4-yl Acetate] |  |
